# Measurements: US20260216328A1, “DISRUPTABLE LINKER COMPOSITIONS, SWITCHABLE BISPECIFIC T CELL NANOENGAGER (SWITCH-BITE) COMPOSITIONS COMPRISING THE SAME, AND METHODS OF USE THEREOF” (The Trustees of the University of Pennsylvania, priority 2023, published 2026)
# Key:
# [1] = tested on: E0771-HER2 cells and primary mouse T cells; assay: T cell-tumour cell engagement by confocal microscopy; format: cell-based
# Description: E0771-HER2 cells were labeled with CSFE-green and primary T cells were labelled with CFSE-red. The two cells were co-cultured and then treated with PBS or SiTE for 2 h. After that, the cells were observed by confocal imaging. T cell to T cell interactions and T cell to tumour cell interactions were counted manually by taking 10 images for quantification.
# After synthesis and characterization of the AMD-responsive SiTE, the ability of SiTE to induce tumour cell-T cell engagement and tumour cell lysis was tested (FIG. 11A). E0771-HER2 cells were incubated with primary mouse T cells at a 1:1 ratio. Cells were then treated with SiTEs at varying concentrations for 4 h and observed under confocal laser scanning microscopy (CLSM) (FIG. 11B). In the untreated control group, cancer cells and T cells were randomly distributed with few T cells and cancer cells engaged. However, in groups receiving 5 ng/mL of SiTE, ~10% of T cells were engaged with tumour cells, and this rate increased to ~90% when cells were treated with 20 ng/mL of SiTE. […] To ensure the specificity of this engagement. […] Since the SiTE contains >20 Fabs, it is possible that it may induce T cell-to-T cell engagement and induce cytokine release. […] After 24 h, mouse blood was collected and the T cell crosslinking levels and IL-6 and TNF-α levels were measured. […]
# E0771-HER2 tumour = E0771-HER2 tumour model with HER2 expression in the liver (on-target, off-tumour toxicity)
# Description: FIG. 26A: mouse model with expression of human HER2 antigen in the liver was constructed using a piggyback transposon system delivered via lipid nanoparticles (LNPs) encapsulating two plasmids, pCMV-hyPBase and pPB7 TBG.human HER2.P2A.IRFP720, at day −30. At day 0, 10^6 E0771-HER2 tumour cells were injected s.c. into the right flank at day 0. […] FIGS. 26B-26D: mouse tumour growth curves, measurements of mouse body weight, and survival curves, respectively. n=8 mice. P value in FIG. 26D was determined using Log-rank (Mantel-Cox) test. […] FIGS. 26E-26K: measurements of markers for inflammation and toxicity including AST, ALT, TNF-α, IFN-γ, and IL-2 levels in mouse blood at different time points. n=3 mice. […] H&E staining was conducted to detect liver damage in different groups. Scale bar: […]. […] Blue: DAPI: Red, CD3^+ T cells. […] (n=5).
# T cell infiltration in the liver was measured using flow (FIG. 27A). FIG. 27B: liver T cells in different treatment groups at day 13. […] P values were indicated in FIGS. 27B-27C, analyzed by two-tailed unpaired Student's t-test. n=3.
# Recently, a mouse model was reported with stable human HER2 antigen expression in the mouse liver. […] Here, the construction of this mouse model was modified and two plasmids were delivered using a lipid nanoparticle (FIGS. 25A-25D). […] Next, a E0771-HER2 tumour model was constructed in mice with HER2 expression in the liver (FIG. 26A). […] The mice were then monitored for tumour growth, body weight, and survival (FIGS. 26B-26D).
compound,measurement,setting,value
"NC12CC3CC(CC(C3)C1)C2 [AMD, adamantan-1-amine]",separation of conjugated cells,[1]; 100 ng/mL AMD after 20 ng/mL SiTE for 4 h,~ 40%
same,separation of conjugated cells,[1]; 1 μg/mL AMD after 20 ng/mL SiTE for 4 h,~100%
same,body weight,E0771-HER2 tumour; 100 μg AMD on day 13 after SiTE,gradual increases in body weight and recovered to a normal range
same,ALT and AST levels in blood,E0771-HER2 tumour; 24 h after AMD infusion following SiTE,returned to lower levels
same,T cells in liver tissue,E0771-HER2 tumour; AMD infusion after SiTE treatment,greatly decreased the number of T cells in liver tissue
